PubChem BioAssay (NCI)
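Dose response: 5 concentrations. Exposure: 48 h. Format: 96-well plates. Endpoint: linear interpolation; highest concentration if not reached. The concentration for 50% growth inhibition is given as GI50. TGI: concentration producing complete growth inhibition.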

Columns and labels:
Assay in all cases: DTP human tumour cell line panel, 48 h
SN12C renal = test system: SN12C renal
U251 CNS = test system: U251 CNS
COLO 205 colon = test system: COLO 205 colon
IGROV1 ovarian = test system: IGROV1 ovarian
NCI-H226 lung = test system: NCI-H226 lung
SK-MEL-5 melanoma = test system: SK-MEL-5 melanoma
T-47D breast = test system: T-47D breast
OVCAR-5 ovarian = test system: OVCAR-5 ovarian
NCI-H460 lung = test system: NCI-H460 lung
M14 melanoma = test system: M14 melanoma

| Structure (SMILES) | TGI (SN12C renal) | TGI (U251 CNS) | TGI (COLO 205 colon) | TGI (IGROV1 ovarian) | TGI (NCI-H226 lung) | TGI (SK-MEL-5 melanoma) | TGI (T-47D breast) | TGI (OVCAR-5 ovarian) | TGI (NCI-H460 lung) | TGI (M14 melanoma) | GI50 (COLO 205 colon) | GI50 (NCI-H226 lung) |
| --- | --- | --- | --- | --- | --- | --- | --- | --- | --- | --- | --- | --- |
| CC(C)[C@H](C)/C=C/[C@@H](C)C1CC[C@H]2[C@@]34C=C[C@]5(C[C@@H](O)CC[C@]5(C)[C@H]3CC[C@]12C)OO4 (some centres undefined) | 79.7 µM | 58.5 µM | > 100 µM | > 100 µM | 49.9 µM | 62.2 µM | > 100 µM | > 100 µM | > 100 µM | > 100 µM | – | – |
| O=C1C(N2CCN(CCOCCO)CC2)=C(Cl)C(=O)c2ncccc21 | 35.3 µM | 35.9 µM | 36.8 µM | 31.4 µM | > 100 µM | 30.6 µM | 6.75 µM | 57.1 µM | > 100 µM | 39.2 µM | 19.3 µM | > 100 µM |
| O=[N+]([O-])c1ccc(N2N=C(c3c(O)ccc4ccccc34)CC2c2ccc(Cl)cc2)c([N+](=O)[O-])c1 (centres undefined) | > 100 µM | > 100 µM | 29.5 µM | > 100 µM | > 100 µM | 39.1 µM | > 100 µM | > 100 µM | > 100 µM | 71 µM | – | – |
| NC1CCCCC1NCCNC1CCCCC1N (centres undefined) | > 100 µM | > 100 µM | 30.8 µM | > 100 µM | > 100 µM | > 100 µM | > 100 µM | 56.6 µM | > 100 µM | > 100 µM | – | – |
| C=C(Br)C[N+]12CN3CN(CN(C3)C1)C2 | > 100 µM | > 100 µM | > 100 µM | > 100 µM | > 100 µM | > 100 µM | > 100 µM | > 100 µM | > 100 µM | > 100 µM | – | – |
| O=c1[nH]nc(-c2ccccc2)c2[nH]c3c(c12)Cc1ccccc1-3 | > 100 µM | > 100 µM | > 34.4 µM | > 100 µM | 70.7 µM | – | > 100 µM | > 100 µM | > 100 µM | > 100 µM | – | – |
| c1cc2cc3c4c5c(cc6ccc7cc8cc9c%10c8c8c7c6c5c8c5c%10c(c1C9N1CCOCCOCCOCCOCCOCC1)c2c45)C3 (centres undefined) | > 100 µM | > 100 µM | > 100 µM | > 100 µM | > 100 µM | > 100 µM | > 100 µM | > 100 µM | > 100 µM | > 100 µM | – | – |
| CC(C)(C)c1cc(OCc2nnc3sc(Cc4ccccc4)nn23)c(Cl)cc1OCc1nnc2sc(Cc3ccccc3)nn12 | > 100 µM | 34.6 µM | > 100 µM | 52.4 µM | > 100 µM | 31.7 µM | 38.5 µM | > 100 µM | 42.5 µM | 88 µM | – | – |
| c1ccc2c(Nc3ncco3)cccc2c1 | > 10 µM | > 10 µM | > 10 µM | > 10 µM | > 10 µM | > 10 µM | > 10 µM | > 10 µM | > 10 µM | > 10 µM | – | – |
| CC(CCc1nc2ccccc2s1)(c1ccc(O)cc1)c1ccc(O)cc1 | 33.6 µM | 27.7 µM | – | 28.3 µM | 41.1 µM | 33.1 µM | 95.2 µM | 33.1 µM | 30 µM | 33.4 µM | – | – |
| O=C1C=CC2(O[C@H](C3CCCCC3)[C@@H](C3CCCCC3)O2)C(SC(=O)c2ccccc2)C1 (some centres undefined) | 6.58 µM | 6.86 µM | 15 µM | 9.1 µM | 1.62 µM | 5.53 µM | 1.94 µM | 6.32 µM | 17.6 µM | 7.9 µM | – | – |
| Oc1ccc(Cl)cc1-c1cc(-c2ccccc2)nc(=S)[nH]1 | > 100 µM | 39.8 µM | > 100 µM | > 100 µM | > 100 µM | > 100 µM | > 100 µM | > 100 µM | > 100 µM | > 100 µM | – | – |
| Oc1ccc2ccccc2c1OCc1nnc(CCCCCCCCc2nnc(COc3c(O)ccc4ccccc34)n2Nc2ccccc2)n1Nc1ccccc1 | > 100 µM | > 58.9 µM | 1.28 µM | > 81.8 µM | > 91.1 µM | 2.37 µM | > 100 µM | > 95.9 µM | > 100 µM | 44.7 µM | – | – |
| CC(=O)/C=C/c1ccccc1 | > 100 µM | > 100 µM | > 100 µM | 64.9 µM | 91.2 µM | 61.2 µM | > 100 µM | > 100 µM | > 100 µM | 85 µM | – | – |
| COC(=O)[C@@H](NS(=O)(=O)CC12CCC(CC1)C2(C)C)C(C)(C)C | > 100 µM | > 100 µM | > 100 µM | > 100 µM | > 100 µM | > 100 µM | > 100 µM | > 100 µM | > 100 µM | > 100 µM | – | – |
| COC(=O)C1C(=O)CC(C)(O)C(C(=O)OC)C1c1ccc(N(C)C)cc1 (centres undefined) | > 100 µM | > 100 µM | > 100 µM | > 100 µM | > 100 µM | > 100 µM | > 100 µM | > 100 µM | > 100 µM | – | – | – |
| Cc1cc2nc3ccccc3n2c2ccccc12 | > 10 µM | > 10 µM | > 10 µM | > 10 µM | > 10 µM | > 10 µM | > 10 µM | > 10 µM | > 10 µM | > 10 µM | – | – |
| Nc1ccc2c(=O)cc(-c3ccc(Br)s3)[nH]c2n1 | > 100 µM | > 74.4 µM | > 22.1 µM | > 100 µM | 9.11 µM | 11.3 µM | > 100 µM | > 100 µM | > 100 µM | 45.3 µM | – | – |
| c1ccc2c[n+](CCCC[n+]3ccc4ccccc4c3)ccc2c1 | > 100 µM | > 100 µM | > 100 µM | > 100 µM | > 100 µM | > 100 µM | > 100 µM | > 100 µM | > 100 µM | > 100 µM | – | – |
| CCOc1ccc2nc3nc(=O)[nH]c(C)c3c(NC(C)(CO)CO)c2c1 | > 100 µM | > 100 µM | > 100 µM | > 100 µM | > 100 µM | > 100 µM | > 100 µM | > 100 µM | > 100 µM | > 100 µM | – | – |
| O=S(=O)(/N=S(/Nc1ccccc1)C(F)(F)Cl)c1ccccc1 (centres undefined) | > 100 µM | > 100 µM | > 100 µM | > 100 µM | > 100 µM | > 100 µM | > 100 µM | > 100 µM | > 100 µM | > 100 µM | – | – |
